Assay [1] concerns WNT signaling (β-catenin reporter) in Tet-21N neuroblastoma cells. Briefly: Integrated WNT reporter in Tet-21N neuroblastoma cells. The settings on record: MYCN-on cells. Format: cell-based. Here is the method: CSNK1ε has been implicated as a positive regulator of WNT signaling (Sakanaka, C., “Phosphorylation and Regulation of Beta-Catenin by Casein Kinase I Epsilon,” J Biochem 132:697-703, 2002). To determine the functional status of WNT activity in neuroblastoma cells with or without amplified MYCN expression, a WNT dual reporter system, employing both consensus (TOP) and mutant (FOP) TCF binding sites was assayed in neuroblastoma cell lines SK-N-AS (MYCN not amplified), SH-Sy5Y (MYCN not amplified), IMR-32 (MYCN amplified and overexpressed), and SK-N-BE2 (MYCN amplified and overexpressed), as described in (Biechele, T. L., et al., “Transcription-Based Reporters of Wnt/beta-Catenin Signaling,” Cold Spring Harb Protoc 2009, pdb prot5223).
A potential direct connection of WNT with MYCN expression was explored utilizing neuroblastoma cells expressing an inducible Tet-MYCN gene. Tet-21N neuroblastoma cells (normal MYCN expression) carrying a Tet-off-MYCN gene, were treated with or without Dox (a tetracycline compound), as described supra. […] Further, the WNT activity was assayed through the detectable activity of an integrated WNT reporter.

The subject of assay [2] is CaOV3 cells (normal c-MYC expression). Briefly: Cell cycle analysis (Propidium Iodide staining, FACS). Format: cell-based, human. Particulars: 1 μM IC261; 16 and 24 hours. Here is the method: (§1) Ovarian cancer cell lines with normal (i.e., low) and amplified expression of c-MYC were assessed for the impact of the CSNK1ε inhibitor IC261 on the progression of the cell cycle. CaOV3 cells (normal c-MYC expression) and TOV112D cells (amplified c-MYC expression) were cultured in 1 μM IC261. The cells were assessed for the state of the cell cycle, namely G1, S-phase, and G2, at time points before and 16 and 24 hours after contact with IC261 by Propidium Iodide staining followed by FACS analysis. […] However, the levels were lower for the cells with amplified c-MYC expression. […] This trend was not observed for the cancer cells with normal c-MYC expression.

For assay [3], the system named is TOV112D cells (amplified c-MYC expression). The description is as above. Format: cell-based, human. Particulars: 1 μM IC261; 16 and 24 hours. On the procedure: as §1
The subject of assay [4] is TOV112D/Luc human ovarian cancer cells. Briefly: Peritoneal carcinomatosis model mice (TOV112D/Luc intraperitoneal xenograft). Format: in vivo. On the procedure:
The effect of CSNK1ε on the cell viability of ovarian cancer cells was then investigated in vivo. Peritoneal carcinomatosis model mice were generated by the intraperitoneal injection of TOV112D/Luc cells. After one week, the mice were randomized into control and experimental groups, which then received daily injections of IC261 or DMSO carrier for three weeks. Weekly Luc imaging was performed for each mouse at the termination of each week of the experiment to monitor the relative viability of cancer cells that have established in the mice. […] As illustrated in the survival graph in FIG. 11B, the DMSO group and IC261 treatment groups diverged in percent survival starting at day 30 when the DMSO group began to experience drastic mortality.

The test system of assay [5] is PEO4 (cisplatin-resistant derivative) ovarian cancer cells. Briefly: Cell viability with cisplatin in presence or absence of IC261. The assay is classed as cell-based, human. Particulars: 1 μM IC-261 with low doses of cisplatin. An excerpt:
Cisplatin, or cis-diamminedichloroplatinum(II) (CDDP), is a chemotherapy drug commonly used to treat numerous types of cancers including ovarian cancer. Cisplatin contains platinum complexes that crosslink DNA, ultimately triggering apoptosis of the cell. However, many treated cancer relapse and display a resistance to cisplatin. Considering the ability of CSNK1ε inhibitors to reduce viability of cells with amplified c-MYC expression, a similar role of CSNK1ε inhibitors on cisplatin resistant cancer cells was investigated. A2780 and A2780-CP70 (resistant derivative), PEO1 and PEO4 (resistant derivative of PE01) ovarian cancer cell lines were cultured in the presence of increasing doses of cisplatin and the presence or absence of IC261. Cell viability was monitored as described above. […] It is noted that the c-MYC expression level in A2780 cells is yet undetermined.

The subject of assay [6] is IMR-32 neuroblastoma cells (amplified MYCN expression). In words: Cell viability of neuroblastoma cells treated with IC261. Format: cell-based. Here is the method: Lentiviral vectors expressing Dox-inducible shRNAs targeting CSNK1ε were transduced into SK-N-AS, a neuroblastoma line with normal MYCN expression, and SK-N-BE2 and IMR-32, neuroblastoma lines with amplified MYCN expression. Expression of the shRNAs were induced with Dox and cell viability was assayed after four days using the CellTiter Glo assay (Promega, Madison, Wis.).
To evaluate the therapeutic potential of CSNK1ε kinase inhibitors for the inhibition of tumor cell growth, the kinase function of CSNK1ε polypeptide was blocked with IC261, a small molecule inhibitor of CSNK1ε and d kinase activity (Mashhoon, N., et al., “Crystal Structure of a Conformation-Selective Casein Kinase-1 Inhibitor,” J Biol Chem 275:20052-20060, 2000). Specifically, the sensitivity of MYC overexpressing cells to IC261 relative to control, was determined in vitro utilizing the neuroblastoma cell lines SK-N-AS (normal MYCN expression) and IMR-32 (amplified MYCN expression). Cultured cells were treated with a range of concentrations of IC261 and percent of cell viability was recorded over four days as described above. […] The difference in cell viability was significant at the 1, 5 and 10 μM concentrations.

One molecule from patent publication US10188630B2, “Methods for identifying and using inhibitors of casein kinase 1 epsilon isoform for inhibiting the growth and/or proliferation of MYC-driven tumor cells” (Fred Hutchinson Cancer Research Center, priority 2010, dated 2019) can be followed below.

For the molecule `COc1cc(OC)c(/C=C2/C(=O)Nc3ccccc32)c(OC)c1` [IC261], the “WNT reporter (β-catenin signal)” value in assay [1] is on record as “repression of the WNT reporter”. Also, the “cells in the G2 phase” value in assay [2] is “small and transient ability to cause cell cycle arrest in G2”; in assay [3], “arrested at the G2 checkpoint”. For the same molecule, the “percentage of cells in the G1 phase” value in assay [2] and in assay [3] was “drastically reduced” each time. The “survival vs DMSO group” value in assay [4] (daily injections for three weeks, groups diverged starting at day 30) is “prolonged the life of the subjects”. In assay [4] (daily injections, after two weeks), the “cancer cell proliferation and viability (Luc imaging) vs DMSO” value is “significantly reduced cancer cell proliferation and viability”. Moreover, the “difference among treatment groups (Luc imaging)” value in assay [4] (week four) is recorded as “much more pronounced”. The “cell viability with low doses of cisplatin” value in assay [5] is recorded as “large reduction in cell viability”. For the same molecule, the “percent cell viability, IMR-32 compared to SK-N-AS” value in assay [6] (48 hours, IC261 0.33 μg/ml and higher) is reported as “lower percent cell viability”. Also, the “difference in cell viability, IMR-32 vs SK-N-AS” value in assay [6] (72 hours) is on record as “significant difference in cell viability”; in assay [6] (96 hours, higher doses), “not statistically significant”.
